biological target: T1, rat B1R (bradykinin receptor 1) (Rattus norvegicus, UniProt P97583); test: FLIPR Ca2+ assay (Fluo-4) on CHO K1 cells stably transfected with the B1R gene of the rat (rB1R cells): % inhibition at 10 μM / IC50, agonist Des-Arg9-bradykinin; format: cell-based; settings: CHO-K1, rat B1R
T1 construct: expressed in transfected cells; host or cells: CHO K1 cells
T1 sequence (P97583 1-337): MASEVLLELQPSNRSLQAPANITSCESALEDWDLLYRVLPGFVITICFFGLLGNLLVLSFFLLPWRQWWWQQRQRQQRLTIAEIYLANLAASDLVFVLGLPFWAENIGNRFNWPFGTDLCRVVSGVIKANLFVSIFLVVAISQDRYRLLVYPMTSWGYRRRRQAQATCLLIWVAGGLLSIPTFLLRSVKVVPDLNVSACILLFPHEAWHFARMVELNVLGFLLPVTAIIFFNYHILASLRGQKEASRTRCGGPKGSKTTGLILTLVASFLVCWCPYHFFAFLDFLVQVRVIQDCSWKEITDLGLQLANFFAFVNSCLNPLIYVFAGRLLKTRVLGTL
How it was run: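 Loading with Fluo-4 occurs for 60 min at 37 °C, or alternatively in buffer A, before FLIPR measurement. Compounds are applied, incubated 10–20 min, and then the EC80 agonist is added. Antagonism appears as reduced peak Ca2+ signal relative to maximal inhibition.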

| SMILES | inhibition at 10 µM [%] |
| --- | --- |
| COc1cccc(F)c1CN1CCC2(CC1)CCN(C(=O)c1ccc3c(c1)C(N(C(=O)c1ccccc1Cl)C1CC1)CC3)C2 (centres unmarked) [IND_CC-525, 2-Chloro-N-cyclopropyl-N-[6-[8-[(2-fluoro-6-methoxy-phenyl)-methyl]-2,8-diazaspiro[4.5]decane-2-carbonyl]-2,3-dihydro-1H-inden-1-yl]-benzamide] | 62 |
| O=C(c1ccc2c(c1)C(NS(=O)(=O)c1cccc(C(F)(F)F)c1)CC2)N1CCC2(CCN(c3ccncc3)CC2)C1 (centres unmarked) [IND_CC-342, N-[6-(8-Pyridin-4-yl-2,8-diazaspiro[4.5]decane-2-carbonyl)-2,3-dihydro-1H-inden-1-yl]-3-(trifluoromethyl)-benzenesulfonic acid amide] | 103 |
| Cn1nc(C(C)(C)C)cc1C(=O)N1CCC2(CCN(C(=O)c3ccc4c(c3)C(NC(=O)c3sccc3Cl)CC4)C2)CC1 (centres unmarked) [IND_CC-587, N-[6-[8-(5-tert-Butyl-2-methyl-2H-pyrazole-3-carbonyl)-2,8-diazaspiro[4.5]-decane-2-carbonyl]-2,3-dihydro-1H-inden-1-yl]-3-chloro-thiophene-2-carboxylic acid amide] | 71 |
| Cc1cc(F)cc(C)c1S(=O)(=O)N(C)C1CCc2ccc(C(=O)N3CCC4(CC3)CCN(c3ccncc3)CC4)cc21 (centres unmarked) [IND_CC-354, 4-Fluoro-N,2,6-trimethyl-N-[6-(9-pyridin-4-yl-3,9-diazaspiro[5.5]undecane-3-carbonyl)-2,3-dihydro-1H-inden-1-yl]-benzenesulfonic acid amide] | 84 |
| Cc1nc[nH]c1CN1CCC2(CC1)CCN(C(=O)c1ccc3c(c1)C(NC(=O)c1cc(C(F)(F)F)ccc1Cl)CC3)C2 (centres unmarked) [IND_CC-655, 2-Chloro-N-[6-[8-[(5-methyl-3H-imidazol-4-yl)-methyl]-2,8-diazaspiro[4.5]-decane-2-carbonyl]-2,3-dihydro-1H-inden-1-yl]-5-(trifluoromethyl)-benzamide] | 59 |
| O=C(NC1CCc2ccc(C(=O)N3CCC4(CCN(Cc5cc(F)ccc5F)CC4)CC3)cc21)c1cc(C(F)(F)F)ccc1Cl (centres unmarked) [IND_CC-646, 2-Chloro-N-[6-[9-[(2,5-difluoro-phenyl)-methyl]-3,9-diazaspiro[5.5]undecane-3-carbonyl]-2,3-dihydro-1H-inden-1-yl]-5-(trifluoromethyl)-benzamide] | 66 |
| O=C(NC1CCc2ccc(C(=O)N3CCC4(CC3)CCN(c3ccncc3)C4)cc21)c1c(F)cccc1C(F)(F)F (centres unmarked) [IND_CC-377, 2-Fluoro-N-[6-(2-pyridin-4-yl-2,8-diazaspiro[4.5]decane-8-carbonyl)-2,3-dihydro-1H-inden-1-yl]-6-(trifluoromethyl)-benzamide] | 104 |
| COc1ccc(CN2CCC3(CC2)CCN(C(=O)c2ccc4c(c2)C(NC(=O)c2ccccc2Cl)CC4)C3)cc1F (centres unmarked) [IND_CC-545, 2-Chloro-N-[6-[8-[(3-fluoro-4-methoxy-phenyl)-methyl]-2,8-diazaspiro[4.5]decane-2-carbonyl]-2,3-dihydro-1H-inden-1-yl]-benzamide] | 105 |
| Cc1cc(C(=O)N2CCC3(CCN(C(=O)c4ccc5c(c4)C(NC(=O)c4ccccc4Cl)CC5)CC3)CC2)n(C(C)(C)C)n1 (centres unmarked) [IND_CC-602, N-[6-[9-(2-tert-Butyl-5-methyl-2H-pyrazole-3-carbonyl)-3,9-diazaspiro-[5.5]undecane-3-carbonyl]-2,3-dihydro-1H-inden-1-yl]-2-chloro-benzamide] | 95 |
| N#Cc1ccccc1CN1CCC2(CC1)CCN(C(=O)c1ccc3c(c1)C(N(C(=O)c1ccccc1Cl)C1CC1)CC3)C2 (centres unmarked) [IND_CC-541, 2-Chloro-N-[6-[8-[(2-cyano-phenyl)-methyl]-2,8-diazaspiro[4.5]decane-2-carbonyl]-2,3-dihydro-1H-inden-1-yl]-N-cyclopropyl-benzamide] | 65 |
| CN(C)c1ncc(CN2CCC3(CC2)CCN(C(=O)c2ccc4c(c2)C(NC(=O)c2cc(Cl)ccc2F)CC4)CC3)cn1 (centres unmarked) [IND_CC-676, 5-Chloro-N-[6-[9-[(2-dimethylamino-pyrimidin-5-yl)-methyl]-3,9-diazaspiro-[5.5]undecane-3-carbonyl]-2,3-dihydro-1H-inden-1-yl]-2-fluoro-benzamide] | 74 |
| CN(C(=O)c1ccccc1Cl)C1CCc2ccc(C(=O)N3CCC4(CCN(C(=O)C5CC5)CC4)C3)cc21 (centres unmarked) [IND_CC-589, 2-Chloro-N-[6-[8-(cyclopropanecarbonyl)-2,8-diazaspiro[4.5]decane-2-carbonyl]-2,3-dihydro-1H-inden-1-yl]-N-methyl-benzamide] | 81 |
| O=C(NC1CCc2ccc(C(=O)N3CCC4(CCN(Cc5ccc6nccnc6c5)CC4)C3)cc21)c1sccc1Cl (centres unmarked) [IND_CC-571, 3-Chloro-N-[6-[8-(quinoxalin-6-yl-methyl)-2,8-diazaspiro[4.5]decane-2-carbonyl]-2,3-dihydro-1H-inden-1-yl]-thiophene-2-carboxylic acid amide] | 52 |
| CN(C(=O)C1CCCCC1)C1CCc2ccc(C(=O)N3CCC4(CC3)CCN(c3ccncc3)CC4)cc21 (centres unmarked) [IND_CC-365, N-Methyl-N-[6-(9-pyridin-4-yl-3,9-diazaspiro[5.5]undecane-3-carbonyl)-2,3-dihydro-1H-inden-1-yl]-cyclohexanecarboxylic acid amide] | 105 |
| O=C(c1ccc2c(c1)C(NS(=O)(=O)Cc1ccccc1F)CC2)N1CCC2(CCN(c3ccncc3)CC2)C1 (centres unmarked) [IND_CC-359, 1-(2-Fluorophenyl)-N-[6-(8-pyridin-4-yl-2,8-diazaspiro[4.5]decane-2-carbonyl)-2,3-dihydro-1H-inden-1-yl]-methanesulfonic acid amide] | 104 |
| O=C(NC1CCc2ccc(C(=O)N3CCC4(CCN(c5ccncc5)CC4)C3)cc21)C1CCC1 (centres unmarked) [IND_CC-415, N-[6-(8-Pyridin-4-yl-2,8-diazaspiro[4.5]decane-2-carbonyl)-2,3-dihydro-1H-inden-1-yl]-cyclobutanecarboxylic acid amide] | 100 |
| Cn1ccc2cc(S(=O)(=O)N3CCC4(CCN(C(=O)c5ccc6c(c5)C(NC(=O)c5ccccc5Cl)CC6)CC4)CC3)ccc21 (centres unmarked) [IND_CC-614, 2-Chloro-N-[6-[9-[(1-methyl-1H-indol-5-yl)sulfonyl]-3,9-diazaspiro[5.5]undecane-3-carbonyl]-2,3-dihydro-1H-inden-1-yl]-benzamide] | 67 |
| N#Cc1ccc(C(=O)N2CCC3(CC2)CCN(C(=O)c2ccc4c(c2)C(NC(=O)c2ccccc2Cl)CC4)CC3)cc1 (centres unmarked) [IND_CC-596, 2-Chloro-N-[6-[9-(4-cyano-benzoyl)-3,9-diazaspiro[5.5]undecane-3-carbonyl]-2,3-dihydro-1H-inden-1-yl]-benzamide] | 94 |

Other lines, results leading:

| inhibition at 10 µM [%] | SMILES |
| --- | --- |
| 82 | O=C(NC1CCc2ccc(C(=O)N3CCC4(CCN(Cc5ccc6nccnc6c5)CC4)CC3)cc21)c1cc(Cl)ccc1F (centres unmarked) [IND_CC-678, 5-Chloro-2-fluoro-N-[6-[9-(quinoxalin-6-yl-methyl)-3,9-diazaspiro[5.5]undecane-3-carbonyl]-2,3-dihydro-1H-inden-1-yl]-benzamide] |
| 93 | Cn1cccc1CN1CCC2(CC1)CCN(C(=O)c1ccc3c(c1)C(NC(=O)c1c(F)cccc1Cl)CC3)CC2 (centres unmarked) [IND_CC-787, 2-Chloro-6-fluoro-N-[6-[9-[(1-methyl-1H-pyrrol-2-yl)-methyl]-3,9-diazaspiro[5.5]undecane-3-carbonyl]-2,3-dihydro-1H-inden-1-yl]-benzamide] |
| 70 | O=C(NC1CCc2ccc(C(=O)N3CCC4(CCN(CCc5ccccc5)CC4)C3)cc21)c1cccc(Cl)c1Cl (centres unmarked) [IND_CC-749, 2,3-Dichloro-N-[6-(8-phenethyl-2,8-diazaspiro[4.5]decane-2-carbonyl)-2,3-dihydro-1H-inden-1-yl]-benzamide] |
| 80 | O=C(Nc1cc(F)cc(F)c1)N1CCC2(CC1)CCN(C(=O)c1ccc3c(c1)C(N(C(=O)c1ccccc1Cl)C1CC1)CC3)C2 (centres unmarked) [IND_CC-720, 2-[3-[(2-Chloro-benzoyl)-cyclopropyl-amino]-2,3-dihydro-1H-indene-5-carbonyl]-N-(3,5-difluoro-phenyl)-2,8-diazaspiro[4.5]decane-8-carboxylic acid amide] |
| 96 | O=C(NC1CCc2ccc(C(=O)N3CCC4(CCN(Cc5cc(F)ccc5F)CC4)CC3)cc21)c1c(F)cccc1Cl (centres unmarked) [IND_CC-790, 2-Chloro-N-[6-[9-[(2,5-difluoro-phenyl)-methyl]-3,9-diazaspiro[5.5]undecane-3-carbonyl]-2,3-dihydro-1H-inden-1-yl]-6-fluoro-benzamide] |
| 62 | CN(C)c1ncc(CN2CCC3(CC2)CCN(C(=O)c2ccc4c(c2)C(NC(=O)c2cc(C(F)(F)F)ccc2Cl)CC4)C3)cn1 (centres unmarked) [IND_CC-683, 2-Chloro-N-[6-[8-[(2-dimethylamino-pyrimidin-5-yl)-methyl]-2,8-diazaspiro[4.5]-decane-2-carbonyl]-2,3-dihydro-1H-inden-1-yl]-5-(trifluoromethyl)-benzamide] |
| 91 | O=C(NC1CCc2ccc(C(=O)N3CCC4(CCN(Cc5csnn5)CC4)CC3)cc21)c1c(F)cccc1Cl (centres unmarked) [IND_CC-797, 2-Chloro-6-fluoro-N-[6-[9-([1,2,3]thiadiazol-4-yl-methyl)-3,9-diazaspiro[5.5]undecane-3-carbonyl]-2,3-dihydro-1H-inden-1-yl]-benzamide] |
| 83 | CC(C)CN1CCC2(CC1)CCN(C(=O)c1ccc3c(c1)C(NC(=O)c1c(F)cccc1Cl)CC3)C2 (centres unmarked) [IND_CC-777, 2-Chloro-6-fluoro-N-[6-[8-(2-methyl-propyl)-2,8-diazaspiro[4.5]decane-2-carbonyl]-2,3-dihydro-1H-inden-1-yl]-benzamide] |

— patent US8455475B2 (Gruenenthal GmbH, priority 2009, dated 2013)
